From patent US20210393785A1, “Nucleic acid nanocarrier drug and preparation method thereof” (BAI YAO ZHI DA (BEIJING) NANOBIO TECHNOLOGY CO., LTD., priority 2018, published 2021)
Values joined by “and” are separate entries in the source; they are usually repeats but may differ in a detail not shown here. Equal values may be shown once.

Tests used:
LN-229 cells = experiment: Cytotoxicity in LN-229 cells; assay type: cell-based; settings: 96 hours
Protocol: 2) adjusting the cell density to 2.22×10^4/mL with a growth medium;
6) taking out the cell culture plate, and adding 10 μL/well of 10× concentration drug working solution to the corresponding wells of the cell culture plate, herein three replicate holes are made for each concentration, and the final drug action concentration is shown in Table 46 below;
8) placing the CellTiter 96® AQueous One Solution reagent at the room temperature and thawing for 90 minutes or thawing in a water bath at 37 DEG C., and then equilibrating at the room temperature for 30 minutes;
9) adding 50 μL/well of the CellTiter 96® AQueous One Solution reagent to the cell culture plate; […]
11) using the microplate reader to read a OD490 value of each well in the cell plate; and […]

HepG2 cells [1] = experiment: Cytotoxicity in HepG-2 cells (CellTiter-Glo); assay type: cell-based, human; settings: 96 hours
Protocol: 1) Harvesting cells in a logarithmic growth phase, taking a small amount and staining with trypan blue for counting to ensure that the cell viability reaches more than 80%;
(§1) 3) planting 90 μL/well of cell suspension into the 96-well plate, herein the number of cells per well in the plate is 2000;
4) placing the planted cell plate in the incubator at 37 DEG C. and incubating overnight under conditions of 5% CO2 and 95% humidity;
(§2) 5) performing 3.16-fold gradient dilution on the compound at 9 concentration points;
6) taking out the cell culture plate, and adding 10 μL/well of 10× concentration drug working solution to the corresponding wells of the cell culture plate, herein three replicate holes are made for each concentration, and the final drug action concentration is shown in Table 56 below;
(§3) 7) placing the cell culture plate in the incubator and continuously incubating for 96 hours;
8) placing the CellTiter-Glo reagent and the drug treatment cell culture plate at the room temperature and equilibrating for 30 minutes;
9) adding 50 μL of the CellTiter-Glo reagent to each well;
10) shaking in the orbital shaker for 2 minutes so that the cells are adequately lysed;
11) placing the cell culture plate at the room temperature and equilibrating for 10 minutes, reading a chemiluminescence value by using EnVision; and
12) data processing and analysis.
GraphPad Prism 5.0 software is used to process data graphically. Nonlinear S-curve regression is used to fit the data to obtain a dosage-effect curve, and an IC50 value is calculated from this.
Cell survival rate (%)=(Lumdrug to be tested−Lummedium control)/(Lumcell control−Lummedium control)×100%.
Lumcell control-Lummedium control is set to 100%, and a LumMedium control value is set to 0%.

Hela cells = experiment: Cytotoxicity in Hela cells (CellTiter 96 AQueous One, OD490); assay type: cell-based; settings: Homo sapiens, 72 hours
Protocol: (§4) 1) Harvesting cells in a logarithmic growth phase, taking a small amount and staining with trypan blue for counting to ensure that the cell viability reaches more than 98%;
3) planting 90 μL/well of cell suspension into the 96-well plate, herein the number of cells per well in the plate is 5000;
(§5) 4) placing the planted cell plate in the incubator at 37 DEG C. and incubating overnight;
as §2
6) taking out the cell culture plate, and adding 10 μL/well of 10× concentration drug working solution to the corresponding wells of the cell culture plate, herein three replicate holes are made for each concentration, and the final drug action concentration is shown in Table 66 below;
7) placing the cell culture plate in the incubator and continuously incubating for 72 hours;
8) placing the CellTiter 96® AQueous One Solution reagent at the room temperature and thawing for 90 minutes or thawing in a water bath at 37 DEG C., placing at the room temperature and equilibrating for 30 minutes; […]
(§6) 11) using a microplate reader to read a OD490 value of each well in the cell plate; and […]
(§7) GraphPad Prism 5.0 software is used to process data graphically. […] A calculation formula of the survival rate is as follows, the IC50 may be automatically calculated in GraphPad Prism 5.0. […]

SGC-7901 cells = experiment: Cytotoxicity in SGC-7901 cells (CellTiter 96 AQueous One, OD490); assay type: cell-based, human; settings: 96 hours
Protocol: as §4, §1, §5, §2
6) taking out the cell culture plate, and adding 10 μL/well of 10× concentration drug working solution to the corresponding wells of the cell culture plate, herein three replicate holes are made for each concentration, and the final drug action concentration is shown in Table 76 below;
as §3
8) placing the CellTiter 96® AQueous One Solution reagent at the room temperature and thawing for 90 minutes or thawing in a water bath at 37 DEG C., and placing at the room temperature and equilibrating for 30 minutes; […]
as §6, §7

HepG2 cells [2] = experiment: CCK8 toxicity of DNA nanoparticles and carrier drugs to HepG2; assay type: cell-based; settings: Homo sapiens, 72 hours
Protocol: A CCK8 method is used to detect the toxicity of DNA nanoparticles and carrier drugs to HepG2.
1. HepG2 cells in a logarithmic growth phase are taken, trypan blue is used for staining and the cell viability is counted to be 98.3%, plating is performed with 5000 Cell/well, a volume is 100 μL/well, 8 96-well plates are paved with 57 wells per plate, and it is incubated overnight at 37 DEG C.
2. A sample to be tested is diluted according to the following table and added: the original culture medium is removed and 100 μL of a culture medium of the sample to be tested with the different concentration is added, and there are 3 replicate wells in each group.
In the present embodiment, the loaded drug and the blank carrier are firstly prepared into 100 μM of stock solution by using the PBS, and then diluted with the complete culture medium (biotin-free DMEM). The original drug doxorubicin is firstly prepared into 100 μM of stock solution by the DMSO, and then diluted with the complete culture medium (biotin-free DMEM). The DMSO is directly diluted with the complete medium (biotin-free DMEM).
3. […]
6. A microplate reader is used to measure an absorbance at 450 nm.
7. Calculation: cell viability (%)=(OD experimental group-OD blank group)×100%/(OD control group-OD blank group), IC50 is calculated by Graph Pad Prism 5.0.

[3] = Particle size measurement (DLS hydrodynamic size); assay type: physicochemical
From the text: 1. Preparing a potential sample (conventional-sequence DNA self-assembly product D-7) and putting into a sample pool, opening a sample pool cover of an instrument, and placing the instrument; […]
4. clicking Ok to complete the settings, while a measurement dialog box appears, clicking Start to start, a DLS measurement value result of a hydrodynamic size of the self-assembly product D-7 is as follows: […]

With `N.N.[Cl][Pt][Cl]` [Cisplatin] the IC50 (LN-229 cells) was 12.5 µM, the IC50 (HepG2 cells [1]) was 3.99 µM and the “Inhibition rate of cell proliferation at highest concentration itself” value (HepG2 cells [1]; highest concentration of each sample (Table 56: 100 μM, DNAh-Bio-Cy5 4.9 μM)) was 99.36%.

With `O=c1cc(-c2ccccc2)oc2ccccc12` [Flavone] the IC50 (Hela cells) was 12.6 µM.

Work on `O=C1[O][Pt]2([NH][C@@H]3CCCC[C@H]3[NH]2)[O]C1=O` [Oxaliplatin] yielded an IC50 (SGC-7901 cells) of 55.8 µM.

`C[C@H]1[C@@H](O)O[C@@H]2O[C@@]3(C)CC[C@H]4[C@H](C)CC[C@@H]1[C@@]24OO3` [DHA (dihydroartemisinin), Dihydroartemisinin] showed an IC50 (LN-229 cells; Homo sapiens) of 20.2 µM.

Work on `COc1cccc2c1C(=O)c1c(O)c3c(c(O)c1C2=O)C[C@@](O)(C(=O)CO)C[C@@H]3O[C@H]1C[C@H](N)[C@H](O)[C@H](C)O1` [doxorubicin] yielded an IC50 (HepG2 cells [2]) of 0.273 µM.

For `CC[C@]1(O)C[C@H]2CN(CCc3c([nH]c4ccccc34)[C@@](C(=O)OC)(c3cc4c(cc3OC)N(C=O)[C@H]3[C@@](O)(C(=O)OC)[C@H](OC(C)=O)[C@]5(CC)C=CCN6CC[C@]43[C@@H]65)C2)C1` [Vincristine], the IC50 (HepG2 cells [1]; Homo sapiens) was 1.68 µM and the inhibition at 100 µM (HepG2 cells [1]; Homo sapiens, highest concentration of each sample (Table 56: 100 μM, DNAh-Bio-Cy5 4.9 μM), read-out: Inhibition rate of cell proliferation at highest concentration itself) was 70.7%.

B1: D-7: conventional-sequence DNA nanoparticles, SEQ ID NO:117-119, no target head, thio modification (nucleic acid)
chain 1: CGCGCGCCCACGAGCGTTGCGGGCGCCGC
chain 2: GCGGCGCCCGCTTCGGCGGCAGGCGGC
chain 3: GCCGCCAGCCGCCCATAGCCGTGGGCGCGCG
modifications: DNA, backbone not given here; phosphorothioate (thio) modified DNA nanoparticle, further chemistry not fully specified
In the case of B1, the “Particle size Z-Ave, Experiment result” value ([3]; result over the 3 detections) is reported as 12.33 d · nm (±1.57 d · nm) and the “Particle size Z-Ave” value ([3]; single detections 1-3, DLS hydrodynamic size) is reported as 10.76 nm·days and 13.9 nm·days and 10.36 nm·days.
